Data: US20200368247A1, “CENICRIVIROC FOR THE TREATMENT OF FIBROSIS” (Tobira Therapeutics, Inc., priority 2014, published 2020)

Legend:
HIV-1 [1] = assay: Study 201 PK/PD Emax model; type: in vivo, human
Excerpt: Drug response was characterized using the following maximum effect (Emax) model:
where E is effect, E0 is the baseline effect (fixed to 0), Imax is the maximum inhibition, C denotes the PK variable (AUC0-24, Cmax, or steady-state concentration [Css]), IC50 is the value of the PK variable which corresponds to 50% of the maximum inhibition and y is the shape parameter which describes the degree of sigmoidicity.

[2] = Phase 1 studies in healthy volunteer subjects; type: in vivo, human
Excerpt: The frequency and magnitude of transaminase elevations observed across these studies was consistent with the pattern described for Phase 1 studies in scientific literature. […] In both studies and at all doses CVC presented a favorable adverse event profile. […] No clinically relevant changes in ECG parameters or changes for any vital sign parameters were observed during the 48-week treatment period. No apparent dose or exposure relationship for adverse events, laboratory abnormalities (including CPK, ALT, AST and bilirubin elevations) or dose-limiting toxicities were observed.

[3] = test system: male CD-1 mice with unilateral ureter occlusion; assay: Mouse UUO model of renal fibrosis; type: in vivo
Description: Test animals were allocated to weight-matched treatment groups on the day prior to the surgical procedure (Day −1). Male CD-1 mice (N=51; age, 7-8 weeks) underwent either sham surgery or total ligation of the right ureter, i.e. UUO, via aseptic laparotomy (FIG. 12). […] Another group received the anti-transforming growth factor TGF-β1 antibody, compound 1D11 (positive control) at 3 mg/kg/day from Days −1 to 4, injected intraperitoneally once daily, and vehicle control from Days 0 to 5. […] On Day 5, animals were anaesthetised, blood and tissues were collected prior to sacrifice.
Study endpoints included: a) body and kidney weights; b) fibrosis in obstructed kidney evaluated via histological quantitative image analysis of picrosirius red staining (ten images/depth/kidney obtained and assessed in a blinded fashion using light microscopy [at 200×] to enable sampling of 60-70% of the renal cortical area) and quantified by a composite Collagen Volume Fraction (CVF [% total area imaged]) score expressed as the average positive stain across three anatomically distinct ([…] apart) tissue sections, or depths, from the obstructed kidney; c) hydroxyproline content of frozen renal cortical tissue biopsies as assessed by biochemical analyses; d) mRNA expression of profibrotic and inflammatory biomarkers (including MCP-1, Collagen 1a1, Collagen 3a1, TGF-β1, Fibronectin-1, α-smooth muscle actin (α-SMA) and connective tissue growth factor-1 (CTGF-1); assessed via Luminex® (Life Technologies™, Carlsbad, Calif., USA) assay with relative expression normalised to HPRT (hypoxanthine phosphoribosyltransferase).
Data are expressed as mean±standard error of mean (SEM). Statistical analyses were performed using GraphPad Prism® (GraphPad Software, Inc., San Diego, Calif., USA). Treatment differences between sham-surgery+vehiclecontrol and UUO+vehicle-control groups, and between UUO+vehicle-control and UUO+compound-1D11 (positive control) groups, were analysed by unpaired t-Test. Treatment differences between UUO+vehicle-control and CVC-dose groups were analysed by one-way ANOVA (analysis of variance) with Dunnett's test (post-hoc).

CCR5 = CCR5 (Homo sapiens, UniProt P51681); assay: CCR5 receptor occupancy / RANTES-induced CCR5 internalization in PBMCs, flow cytometry; type: cell-based; settings: PBMCs
Description: The capacity of each drug to inhibit CCR5 or CCR2 internalization was evaluated. Cell-surface expression of CCR5 and CCR2 was assessed by flow cytometry, and fluorescence values were converted into molecules of equivalent soluble fluorescence (MESF).

NASH mice = assay: STAM mouse model of NASH, anti-HCC effects, week 18; settings: for Body weight / Maximum diameter of visible tumor nodules (mm) / mice with GS-positive nodules / mice with HCC lesions (HE staining): week 18; for mice that died (survival analysis): 6 to 18 weeks
Description: Group 1-Vehicle: Eighteen NASH mice were orally administered vehicle at a volume of 10 mL/kg twice daily (9:00 and 19:00) from 6 weeks of age.

[4] = test system: male Sprague-Dawley rats with TAA-induced fibrosis; assay: Rat model of thioacetamide-induced liver fibrosis and cirrhosis; type: in vivo; settings: 8 weeks
Description: Fibrosis was induced in male Sprague-Dawley rats by intraperitoneal administration of TAA 150 mg/kg 3 times/week for 8 weeks. […] Biochemical, gene expression and histologic evaluations of the liver were conducted.

[5] = test system: RANTES-induced Ca2+ mobilization; assay: RANTES-induced Ca2+ mobilization; type: cell-based
HIV-1 [6] = assay: Study 201 drug resistance testing; type: in vivo, human; settings: Baseline, Day 7, Day 40; subjects with evaluable samples
Description: In Study 201, drug resistance testing was performed at Baseline, Day 7, and Day 40 (or at the “Early Termination” visit, if applicable).

[7] = CVC 7 and 20 mg/kg/day, compound 1D11
[8] = CVC-high 100 mg/kg/day, listed as Cenicriviroc
[9] = CVC-low 20 mg/kg/day, listed as Cenicriviroc

CCR5, sequence (P51681 whole entry): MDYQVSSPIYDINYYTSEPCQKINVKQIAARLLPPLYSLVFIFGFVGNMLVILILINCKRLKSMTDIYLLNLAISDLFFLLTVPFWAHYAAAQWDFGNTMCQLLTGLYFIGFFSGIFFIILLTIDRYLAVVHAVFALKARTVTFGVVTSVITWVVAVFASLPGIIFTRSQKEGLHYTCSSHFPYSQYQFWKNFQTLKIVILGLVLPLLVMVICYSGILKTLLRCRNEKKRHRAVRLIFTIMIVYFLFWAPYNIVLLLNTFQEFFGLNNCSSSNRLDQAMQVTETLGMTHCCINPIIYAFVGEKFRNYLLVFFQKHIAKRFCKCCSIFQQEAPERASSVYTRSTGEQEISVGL

CCCCOCCOc1ccc(-c2ccc3c(c2)/C=C(/C(=O)Nc2ccc([S@@+]([O-])Cc4cncn4CCC)cc2)CCCN3CC(C)C)cc1 [CVC, (S)-8-[4-(2-Butoxyethoxy)phenyl]-1-isobutyl-N-(4-{[(1-propyl-1H-imidazol-5-yl)methyl]sulfinyl}phenyl)-1,2,3,4-tetrahydro-1-benzazocine-5-carboxamide]
percent of the maximum inhibitory effect at average Css (HIV-1 [1]; 25 mg): 54.9%
percent of the maximum inhibitory effect at average Css (HIV-1 [1]; 50 mg): 79.8%
percent of the maximum inhibitory effect at average Css (HIV-1 [1]; 75 mg): 85.9%
percent of the maximum inhibitory effect at average Css (HIV-1 [1]; 150 mg): 95.9%
Emax in the PK/PD model (HIV-1 RNA) (HIV-1 [1]; Emax model): −1.43 log10 copies/mL
generally well tolerated multiple daily doses ([2]; Phase 1, 10 days): up to 200 mg
generally well tolerated single doses ([2]; Phase 1, healthy volunteers): up to 800 mg
effect on body weight ([3]; CVC 7 mg/kg/day, compound 1D11 3 mg/kg/day, Day 5): no effect on body weight
tolerability in UUO mice ([3]; CVC 100 mg/kg/day): terminated early due to moribundity
effect on obstructed kidney hydroxyproline content ([3]; CVC 7 and 20 mg/kg/day): Neither dose of CVC tested affected UUO-induced increases
Collagen 1a1, Collagen 3a1, TGF-β1 and Fibronectin-1 mRNA expression vs UUO+vehicle-control [3, 7]: did not reach statistical significance
MCP-1, α-SMA and CTGF-1 mRNA expression vs UUO+vehicle-control [3, 7]: did not have significant effects
prevention of RANTES-induced CCR5 internalization (CCR5): at lower effective concentrations than MVC
Body weight (NASH mice; CVC-high 100 mg/kg/day): 20.8 ± 2.7 g
Maximum diameter of visible tumor nodules (mm) (NASH mice; CVC-high 100 mg/kg/day): 5.3±5.1 mm
Body weight (NASH mice; [8]): 20.8 ± 2.7 g
Maximum diameter of visible tumor nodules (mm) (NASH mice; [8]): 5.3 ± 5.1 mm
mice that died (survival analysis) (NASH mice; CVC-high): Five out of twelve
mice with GS-positive nodules (NASH mice; CVC-high): seven out of seven
mice with HCC lesions (HE staining) (NASH mice; CVC-high): six out of seven
Body weight (NASH mice; CVC-low 20 mg/kg/day): 22.9 ± 3.5 g
Maximum diameter of visible tumor nodules (mm) (NASH mice; CVC-low 20 mg/kg/day): 4.8±5.4 mm
Body weight (NASH mice; [9]): 22.9 ± 3.5 g
Maximum diameter of visible tumor nodules (mm) (NASH mice; [9]): 4.8 ± 5.4 mm
mice that died (survival analysis) (NASH mice; CVC-low): Six out of twelve
mice with GS-positive nodules (NASH mice; CVC-low): five out of six
mice with HCC lesions (HE staining) (NASH mice; CVC-low): five out of six
reduction of fibrosis by collagen morphometry ([4]; Group 1a, 30 mg/kg/day concurrently with TAA): 49%
reduction of fibrosis by collagen morphometry ([4]; Group 1b, 100 mg/kg/day concurrently with TAA): 38%
RANTES-induced Ca2+ mobilization [5]: blocked
drug susceptibility of virus (HIV-1 [6]): fully susceptible
